Reference: patent publication US20230304041A1, “DUAL PROMOTER-DRIVEN AND DUAL REPORTER-[…]-COV-2 REPLICONS AND METHODS OF USE” (Rosalind Franklin University of Medicine & Science, priority 2022, published 2023)

System: SARS2 replicon
Assay: microbe, parasite or virus in culture
Assay type: cell-based, SARS-CoV-2
Conditions: Severe acute respiratory syndrome coronavirus 2, HEK-293T, 24 hr, read-out: inhibition of fLuc

CCC(CC)COC(=O)[C@H](C)N[P@](=O)(OC[C@H]1O[C@@](C#N)(c2ccc3c(N)ncnn23)[C@H](O)[C@@H]1O)Oc1ccccc1 [Remdesivir] gave an inhibition at 10 µM of 70%.
